Test results reported in patent US20210045385A1, “PYRIDAZINONE-SUBSTITUTED KETOXIMES AS HERBICIDES” (FMC Corporation, priority 2018, published 2021).

Legend:
Format in all cases: in vivo
kochia (Kochia scoparia) [1] = assay: Test A preemergence, visual plant response rating; conditions: for Kochia plant response rating: preemergence, 0 to 100 scale, 0 no effect, 100 complete control; for Kochia plant response rating (0 to 100 scale): approx. 10 days
How it was run: (§1)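 Formulated in a non-phytotoxic solvent mixture including surfactant, each test chemical was sprayed onto the soil surface after sowing, or onto seedlings 2 to 10 cm high. Roughly 10 days later, plants were compared with untreated controls and rated for injury from 0 (no effect) to 100 (complete control).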

[2] = test system: Italian ryegrass (Lolium multiflorum); assay: Test A preemergence, visual plant response rating; conditions: for Ryegrass, Italian plant response rating: preemergence, 0 to 100 scale, 0 no effect, 100 complete control; for Ryegrass, Italian plant response rating (0 to 100 scale): approx. 10 days
How it was run: as §1

[3] = test system: foxtail, giant (giant foxtail, Setaria faberii); assay: Test A preemergence, visual plant response rating; conditions: for Foxtail, Giant plant response rating: preemergence, 0 to 100 scale, 0 no effect, 100 complete control; for Foxtail, Giant plant response rating (0 to 100 scale): approx. 10 days
How it was run: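 Preemergence: seeds in loam/sand blend given directed soil spray of compound in non-phytotoxic solvent with surfactant. Postemergence: plants 2–10 cm, one- to two-leaf stage, sprayed with same formulation. Visual injury rated vs untreated controls after ~10 days in greenhouse, 0 (no effect) to 100 (complete control).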

[4] = test system: ragweed (common ragweed, Ambrosia elatior); assay: Test A preemergence, visual plant response rating; conditions: for Ragweed plant response rating: preemergence, 0 to 100 scale, 0 no effect, 100 complete control; for Ragweed plant response rating (0 to 100 scale): approx. 10 days
How it was run: as §1

[5] = test system: pigweed (Amaranthus retroflexus); assay: Test A preemergence, visual plant response rating; conditions: for Pigweed plant response rating: preemergence, 0 to 100 scale, 0 no effect, 100 complete control; for Pigweed plant response rating (0 to 100 scale): approx. 10 days
How it was run: as §1

[6] = test system: barnyardgrass (Echinochloa crus-galli); assay: Test A preemergence, visual plant response rating; conditions: for Barnyardgrass plant response rating: preemergence, 0 to 100 scale, 0 no effect, 100 complete control; for Barnyardgrass plant response rating (0 to 100 scale): approx. 10 days
How it was run: as §1

rice (Oryza sativa) = assay: Test B flooded paddy test, visual plant response rating; conditions: 250 g ai/ha, Flood, applied to paddy water, 2-leaf stage, evaluated after 13 to 15 days
How it was run: (§2)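 Seedlings at 2 leaves; compound into paddy water (3 cm flood, maintained); 13–15 d greenhouse; visual score relative to controls.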

[7] = test system: ducksalad (Heteranhera limosa); assay: as above; conditions: 250 g ai/ha, Flood, applied to paddy water, 2-leaf stage, evaluated after 13 to 15 days
How it was run: as §2

[8] = test system: sedge, umbrella (small-flower umbrella sedge, Cyperus difformis); assay: as above; conditions: 250 g ai/ha, Flood, applied to paddy water, 2-leaf stage, evaluated after 13 to 15 days
How it was run: as §2

[9] = test system: barnyardgrass (Echinochloa crus-galli); assay: as above; conditions: 250 g ai/ha, Flood, applied to paddy water, 2-leaf stage, evaluated after 13 to 15 days
How it was run: as §2

kochia (Kochia scoparia) [10] = assay: Test A postemergence, visual plant response rating; conditions: for Kochia plant response rating: Postemergence, 125 g ai/ha, 0 to 100 scale (0 no effect, 100 complete control)
How it was run: as §1

[11] = test system: galium (catchweed bedstraw, Galium aparine); assay: Test A postemergence, visual plant response rating; conditions: for Galium plant response rating: Postemergence, 125 g ai/ha, 0 to 100 scale (0 no effect, 100 complete control)
How it was run: as §1

[12] = test system: wheat (Triticum aestivum); assay: Test A postemergence, visual plant response rating; conditions: for Wheat plant response rating: Postemergence, 125 g ai/ha, 0 to 100 scale (0 no effect, 100 complete control)
How it was run: as §1

[13] = test system: Italian ryegrass (Lolium multiflorum); assay: Test A postemergence, visual plant response rating; conditions: for Ryegrass, Italian plant response rating: Postemergence, 125 g ai/ha, 0 to 100 scale (0 no effect, 100 complete control)
How it was run: as §1

[14] = test system: foxtail, giant (giant foxtail, Setaria faberii); assay: Test A postemergence, visual plant response rating; conditions: for Foxtail, Giant plant response rating: Postemergence, 125 g ai/ha, 0 to 100 scale (0 no effect, 100 complete control)
How it was run: as §1

corn (Zea mays) = assay: Test A postemergence, visual plant response rating; conditions: for Corn plant response rating: Postemergence, 125 g ai/ha, 0 to 100 scale (0 no effect, 100 complete control)
How it was run: as §1

[15] = test system: ragweed (common ragweed, Ambrosia elatior); assay: Test A postemergence, visual plant response rating; conditions: for Ragweed plant response rating: Postemergence, 125 g ai/ha, 0 to 100 scale (0 no effect, 100 complete control)
How it was run: as §1

[16] = test system: pigweed (Amaranthus retroflexus); assay: Test A postemergence, visual plant response rating; conditions: for Pigweed plant response rating: Postemergence, 125 g ai/ha, 0 to 100 scale (0 no effect, 100 complete control)
How it was run: as §1

[17] = test system: barnyardgrass (Echinochloa crus-galli); assay: Test A postemergence, visual plant response rating; conditions: for Barnyardgrass plant response rating: Postemergence, 125 g ai/ha, 0 to 100 scale (0 no effect, 100 complete control)
How it was run: as §1

[18] = test system: blackgrass (Alopecurus myosuroides); assay: Test A postemergence, visual plant response rating; conditions: for Blackgrass plant response rating: Postemergence, 125 g ai/ha, 0 to 100 scale (0 no effect, 100 complete control)
How it was run: as §1

[19] = 1000 g ai/ha Postemergence, approx. 10 days
[20] = 500 g ai/ha, postemergence, 0 is no effect, 100 is complete control

Row | SMILES | Plant response rating, Rice (0 to 100 scale, 0 is no effect, 100 is complete control) (rice (Oryza sativa)) | Plant response rating, Ducksalad (0 to 100 scale, 0 is no effect, 100 is complete control) [7] | Plant response rating, Sedge, Umbrella (0 to 100 scale, 0 is no effect, 100 is complete control) [8] | Plant response rating, Barnyardgrass (0 to 100 scale, 0 is no effect, 100 is complete control) [9] | Kochia plant response rating (0 to 100 scale) (kochia (Kochia scoparia) [1]; 500 g ai/ha Preemergence) | Ryegrass, Italian plant response rating (0 to 100 scale) ([2]; 500 g ai/ha Preemergence) | Foxtail, Giant plant response rating (0 to 100 scale) ([3]; 500 g ai/ha Preemergence) | Ragweed plant response rating (0 to 100 scale) ([4]; 500 g ai/ha Preemergence) | Pigweed plant response rating (0 to 100 scale) ([5]; 500 g ai/ha Preemergence) | Barnyardgrass plant response rating (0 to 100 scale) ([6]; 500 g ai/ha Preemergence) | Kochia plant response rating (0 to 100 scale) (kochia (Kochia scoparia) [10]; [20]) | Kochia plant response rating (kochia (Kochia scoparia) [10]) | Galium plant response rating (0 to 100 scale) [11, 20] | Galium plant response rating [11] | Wheat plant response rating (0 to 100 scale) [12, 20] | Wheat plant response rating [12] | Ryegrass, Italian plant response rating (0 to 100 scale) [13, 20] | Ryegrass, Italian plant response rating [13] | Foxtail, Giant plant response rating (0 to 100 scale) [14, 20] | Foxtail, Giant plant response rating [14] | further results
1 | Cc1cccc(/C(=N/OC(C)C)c2c(O)c(C)nn(C)c2=O)c1 [Compound 18] | 0 | 0 | 0 | 0 |  |  |  |  |  |  |  |  |  |  |  |  |  |  |  |  | Kochia plant response rating (kochia (Kochia scoparia) [1]; 1000 g ai/ha): 50; Ryegrass, Italian plant response rating ([2]; 1000 g ai/ha): 60; Foxtail, Giant plant response rating ([3]; 1000 g ai/ha): 20; Ragweed plant response rating ([4]; 1000 g ai/ha): 80; Pigweed plant response rating ([5]; 1000 g ai/ha): 100; Barnyardgrass plant response rating ([6]; 1000 g ai/ha): 30; Kochia plant response rating (0 to 100 scale) (kochia (Kochia scoparia) [10]; [19]): 30; Galium plant response rating (0 to 100 scale) [11, 19]: 90; Wheat plant response rating (0 to 100 scale) [12, 19]: 20; Ryegrass, Italian plant response rating (0 to 100 scale) [13, 19]: 60; Foxtail, Giant plant response rating (0 to 100 scale) [14, 19]: 40; Corn plant response rating (0 to 100 scale) (corn (Zea mays); [19]): 0; Ragweed plant response rating (0 to 100 scale) [15, 19]: 100; Pigweed plant response rating (0 to 100 scale) [16, 19]: 90; Barnyardgrass plant response rating (0 to 100 scale) [17, 19]: 10; Blackgrass plant response rating (0 to 100 scale) [18, 19]: 10
2 | CO/N=C(/c1cccc(F)c1)c1c(O)c(C)nn(C)c1=O [Compound 32] | 0 | 0 | 0 | 0 | 10 | 50 | 0 | 40 | 50 | 0 | 70 | 20 | 80 | 70 | 10 | 0 | 60 | 40 | 20 | 10 | Kochia plant response rating (0 to 100 scale) (kochia (Kochia scoparia) [1]; 125 g ai/ha Preemergence): 0; Ryegrass, Italian plant response rating (0 to 100 scale) ([2]; 125 g ai/ha Preemergence): 20; Foxtail, Giant plant response rating (0 to 100 scale) ([3]; 125 g ai/ha Preemergence): 0; Ragweed plant response rating (0 to 100 scale) ([4]; 125 g ai/ha Preemergence): 20; Pigweed plant response rating (0 to 100 scale) ([5]; 125 g ai/ha Preemergence): 0; Barnyardgrass plant response rating (0 to 100 scale) ([6]; 125 g ai/ha Preemergence): 0; Corn plant response rating (0 to 100 scale) (corn (Zea mays); [20]): 0; Corn plant response rating (corn (Zea mays)): 0; Ragweed plant response rating (0 to 100 scale) [15, 20]: 80; Ragweed plant response rating [15]: 50; Pigweed plant response rating (0 to 100 scale) [16, 20]: 40; Pigweed plant response rating [16]: 40; Barnyardgrass plant response rating (0 to 100 scale) [17, 20]: 20; Barnyardgrass plant response rating [17]: 10; Blackgrass plant response rating (0 to 100 scale) [18, 20]: 20; Blackgrass plant response rating [18]: 0
3 | CO/N=C(/c1ccccc1F)c1c(O)c(C)nn(C)c1=O [Compound 34] | 0 | 0 | 0 | 0 | 0 | 60 | 40 | 50 | 10 | 0 | 20 | 10 | 70 | 40 | 20 | 20 | 60 | 20 | 10 | 0 | Kochia plant response rating (kochia (Kochia scoparia) [1]; 125 g ai/ha): 0; Ryegrass, Italian plant response rating ([2]; 125 g ai/ha): 10; Foxtail, Giant plant response rating ([3]; 125 g ai/ha): 0; Ragweed plant response rating ([4]; 125 g ai/ha): 20; Pigweed plant response rating ([5]; 125 g ai/ha): 0; Barnyardgrass plant response rating ([6]; 125 g ai/ha): 0; Corn plant response rating (0 to 100 scale) (corn (Zea mays); [20]): 0; Corn plant response rating (corn (Zea mays)): 0; Ragweed plant response rating (0 to 100 scale) [15, 20]: 50; Ragweed plant response rating [15]: 40; Pigweed plant response rating (0 to 100 scale) [16, 20]: 20; Pigweed plant response rating [16]: 20; Barnyardgrass plant response rating (0 to 100 scale) [17, 20]: 20; Barnyardgrass plant response rating [17]: 0; Blackgrass plant response rating (0 to 100 scale) [18, 20]: 10; Blackgrass plant response rating [18]: 0
4 | Cc1ccc(Cl)cc1/C(=N\O)c1c(O)c(C)nn(C)c1=O [Compound 35] | 0 | 0 | 0 | 0 | 0 | 10 | 0 | 10 | 0 | 0 | 10 | 0 | 70 | 20 | 0 | 0 | 20 | 0 | 0 | 0 | Kochia plant response rating (kochia (Kochia scoparia) [1]; 125 g ai/ha): 0; Ryegrass, Italian plant response rating ([2]; 125 g ai/ha): 0; Foxtail, Giant plant response rating ([3]; 125 g ai/ha): 0; Ragweed plant response rating ([4]; 125 g ai/ha): 0; Pigweed plant response rating ([5]; 125 g ai/ha): 0; Barnyardgrass plant response rating ([6]; 125 g ai/ha): 0; Corn plant response rating (0 to 100 scale) (corn (Zea mays); [20]): 0; Corn plant response rating (corn (Zea mays)): 0; Ragweed plant response rating (0 to 100 scale) [15, 20]: 20; Ragweed plant response rating [15]: 10; Pigweed plant response rating (0 to 100 scale) [16, 20]: 20; Pigweed plant response rating [16]: 10; Barnyardgrass plant response rating (0 to 100 scale) [17, 20]: 0; Barnyardgrass plant response rating [17]: 0; Blackgrass plant response rating (0 to 100 scale) [18, 20]: 20; Blackgrass plant response rating [18]: 0
5 | CCc1cccc(C(=NOC)c2c(O)c(C)nn(C)c2=O)c1 [Compound 36] | 0 | 0 | 0 | 0 | 50 | 50 | 50 | 70 | 30 | 20 | 70 | 60 | 70 | 50 | 0 | 0 | 50 | 30 | 10 | 0 | Kochia plant response rating (kochia (Kochia scoparia) [1]; 125 g ai/ha): 10; Ryegrass, Italian plant response rating ([2]; 125 g ai/ha): 30; Foxtail, Giant plant response rating ([3]; 125 g ai/ha): 0; Ragweed plant response rating ([4]; 125 g ai/ha): 10; Pigweed plant response rating ([5]; 125 g ai/ha): 10; Barnyardgrass plant response rating ([6]; 125 g ai/ha): 10; Corn plant response rating (0 to 100 scale) (corn (Zea mays); [20]): 0; Corn plant response rating (corn (Zea mays)): 20; Ragweed plant response rating (0 to 100 scale) [15, 20]: 80; Ragweed plant response rating [15]: 70; Pigweed plant response rating (0 to 100 scale) [16, 20]: 70; Pigweed plant response rating [16]: 20; Barnyardgrass plant response rating (0 to 100 scale) [17, 20]: 0; Barnyardgrass plant response rating [17]: 0; Blackgrass plant response rating (0 to 100 scale) [18, 20]: 20; Blackgrass plant response rating [18]: 10
